This passage reports ED50 and ID50 results from ChEMBL document CHEMBL1121676, “1980 Award in Medicinal Chemistry: Medicinal chemistry and dynamic structure-activity analysis in the discovery of drugs acting at histamine H2 receptors” (1981).

The source made the active and inactive calls. No cut-off for these calls is given here.

The subject of one assay is Rattus norvegicus. In words: Tested for inhibition of histamine-stimulated gastric acid secretion in the lumen-perfused anesthetized rat expressed as intravenous dose which reduces a near maximal secretion to 50%. The format is functional. The following applies: Stomach, read-out: ID50 (the source's name).
`N=C(N)NCCc1c[nH]cn1`: the ED50 was over 500 µmol/kg.
Still for that read-out and setting: as for `CSC(=N)NCCCc1c[nH]cn1`, the figure is 100 µmol/kg; as for `N=C(N)NCCCc1c[nH]cn1`, 100 µmol/kg; as for `CC(=N)NCCCc1c[nH]cn1`, 100 µmol/kg.
On the same count and under the same terms, to `N=C(N)SCCc1c[nH]cn1` [IMETIT] belongs 200 µmol/kg.

The next assay relates to Rattus norvegicus. In words: Tested for inhibition of histamine-stimulated gastric acid secretion in the lumen-perfused anesthetized rat expressed as intravenous dose which reduces a near maximal secretion to 50%; detectable. Conditions: Stomach. The format is functional, organism-based.
Regarding `N=C(N)SCCCc1c[nH]cn1`, the ID50 entry is “inactive”.
`CSC(=N)NCCc1c[nH]cn1`: the ID50 entry is recorded as “detectable”.
For `CC(=N)NCCc1c[nH]cn1`, the ID50 result was “detectable”.
